In patent US12428394B2, “2,4-disubstituted pyrimidine derivative, preparation method therefor and use thereof” (CHENGDU ZENITAR BIOMEDICAL TECHNOLOGY CO., LTD., priority 2019, dated 2025):

Legend:
[1] = tested on: MV4-11 cells (FLT3-ITD+/+); experiment: Inhibition of cell proliferation by MTT experiment, MV4-11; format: cell-based, human; conditions: Homo sapiens, MV4-11; MTT, 72 h; read-out: IC50 value on cell proliferation inhibition, MV4-11 FLT3-ITD+/+
Outline: (§1)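 MTT assay in MV4-11, MOLM-13 (FLT3-ITD) and SET-2 (JAK2 V617F) cells at 10,000–15,000 cells/well in IMDM with 10% FBS. Cells are exposed to compound for 72 h at 37 °C, then to MTT for 1–3 h. IC50 is fitted from inhibition rates across concentrations.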

[2] = tested on: MOLM-13 cells (FLT3-ITD-/+); experiment: Inhibition of cell proliferation by MTT experiment, MOLM-13; format: cell-based, human; conditions: Homo sapiens, MOLM-13; MTT, 72 h; read-out: IC50 value on cell proliferation inhibition, MOLM-13 FLT3-ITD-/+
Outline: as §1

[3] = tested on: SET-2 cells (JAK2 V617F); experiment: Inhibition of cell proliferation by MTT experiment, SET-2; format: cell-based; conditions: Homo sapiens, SET-2; MTT, 72 h; read-out: IC50 value on cell proliferation inhibition, SET-2 (V617F)
Outline: as §1

[4] = target: T1, FLT3 (Homo sapiens, UniProt P36888); experiment: In vitro kinase activity experiment, FLT3; format: biochemical; conditions: 40 min; inhibition rate of enzyme at 500 nM; measured by Eurofins; read-out: Kinase activity @ 500 nM (%) FLT3
T1 construct: purchased Eurofins
T1 sequence (P36888 27-993): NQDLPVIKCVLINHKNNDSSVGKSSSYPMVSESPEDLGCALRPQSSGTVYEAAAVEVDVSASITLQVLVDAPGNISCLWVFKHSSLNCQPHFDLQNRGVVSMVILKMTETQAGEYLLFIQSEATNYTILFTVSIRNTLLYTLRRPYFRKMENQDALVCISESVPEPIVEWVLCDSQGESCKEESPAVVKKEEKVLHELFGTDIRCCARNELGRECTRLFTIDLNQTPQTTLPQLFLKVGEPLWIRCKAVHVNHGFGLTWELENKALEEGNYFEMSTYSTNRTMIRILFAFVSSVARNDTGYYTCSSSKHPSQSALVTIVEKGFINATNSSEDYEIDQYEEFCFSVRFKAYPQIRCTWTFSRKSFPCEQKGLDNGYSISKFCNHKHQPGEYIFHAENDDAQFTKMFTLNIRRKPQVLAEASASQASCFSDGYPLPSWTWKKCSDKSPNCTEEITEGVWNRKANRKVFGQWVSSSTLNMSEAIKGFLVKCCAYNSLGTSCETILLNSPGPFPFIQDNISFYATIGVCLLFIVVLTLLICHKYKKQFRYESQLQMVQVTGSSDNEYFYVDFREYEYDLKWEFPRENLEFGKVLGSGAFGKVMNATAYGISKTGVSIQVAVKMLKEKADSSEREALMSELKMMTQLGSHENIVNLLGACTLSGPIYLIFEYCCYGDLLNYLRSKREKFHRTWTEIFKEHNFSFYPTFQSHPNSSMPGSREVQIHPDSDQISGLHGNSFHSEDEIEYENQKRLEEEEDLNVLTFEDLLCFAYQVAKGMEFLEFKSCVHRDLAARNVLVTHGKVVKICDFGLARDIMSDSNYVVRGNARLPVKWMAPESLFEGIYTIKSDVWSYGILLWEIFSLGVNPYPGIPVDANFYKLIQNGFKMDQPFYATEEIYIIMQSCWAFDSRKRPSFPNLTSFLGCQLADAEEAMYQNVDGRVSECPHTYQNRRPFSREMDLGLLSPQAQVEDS
Outline: (§2)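 Radiometric filter-binding assay: kinase, its substrate and compound in 8 mM MOPS pH 7.0, 0.2 mM EDTA, 10 mM MnCl2, with 10 mM magnesium acetate and γ33P-ATP; MgATP started the reaction, 40 min at room temperature. Stopped with 3% phosphate, spotted on Filtermat A, washed, scintillation counted.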

[5] = target: T2, JAK2 (Homo sapiens, UniProt O60674); experiment: In vitro kinase activity experiment, JAK2; format: biochemical; conditions: inhibition rate of enzyme at 500 nM; measured by Eurofins
T2 construct: purchased Eurofins
T2 sequence (O60674 whole entry): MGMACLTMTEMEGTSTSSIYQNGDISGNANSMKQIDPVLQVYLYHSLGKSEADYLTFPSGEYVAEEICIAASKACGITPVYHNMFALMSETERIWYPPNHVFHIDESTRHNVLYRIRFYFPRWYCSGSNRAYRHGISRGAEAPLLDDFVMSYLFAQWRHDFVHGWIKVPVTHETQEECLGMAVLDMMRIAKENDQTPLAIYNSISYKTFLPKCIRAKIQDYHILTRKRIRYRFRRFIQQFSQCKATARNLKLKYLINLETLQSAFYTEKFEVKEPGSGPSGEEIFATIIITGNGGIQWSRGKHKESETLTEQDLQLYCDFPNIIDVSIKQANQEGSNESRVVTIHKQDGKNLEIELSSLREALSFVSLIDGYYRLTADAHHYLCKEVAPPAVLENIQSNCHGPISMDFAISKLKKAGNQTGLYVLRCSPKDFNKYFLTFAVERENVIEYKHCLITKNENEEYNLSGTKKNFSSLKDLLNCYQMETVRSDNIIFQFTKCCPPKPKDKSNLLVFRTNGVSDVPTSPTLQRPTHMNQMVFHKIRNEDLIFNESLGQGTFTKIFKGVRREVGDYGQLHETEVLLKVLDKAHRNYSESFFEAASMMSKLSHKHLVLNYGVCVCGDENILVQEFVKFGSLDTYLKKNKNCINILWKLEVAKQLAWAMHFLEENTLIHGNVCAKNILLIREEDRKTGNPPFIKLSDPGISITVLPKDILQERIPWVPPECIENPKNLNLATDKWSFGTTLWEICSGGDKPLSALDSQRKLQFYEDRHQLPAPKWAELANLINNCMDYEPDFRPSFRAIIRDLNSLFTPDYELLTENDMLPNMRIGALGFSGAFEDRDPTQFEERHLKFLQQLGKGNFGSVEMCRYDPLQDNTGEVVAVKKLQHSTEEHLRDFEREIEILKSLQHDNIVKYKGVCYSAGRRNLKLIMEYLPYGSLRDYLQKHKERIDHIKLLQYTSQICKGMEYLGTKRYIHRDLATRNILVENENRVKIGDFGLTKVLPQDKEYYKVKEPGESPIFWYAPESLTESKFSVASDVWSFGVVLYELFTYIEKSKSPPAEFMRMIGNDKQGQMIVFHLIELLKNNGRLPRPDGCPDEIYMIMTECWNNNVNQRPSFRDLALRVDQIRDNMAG
Outline: as §2

Structure (SMILES) | IC50 [1] [nM] | IC50 [2] [nM] | inhibition at 0.5 µM [4] [%] | Kinase activity @ 500 nM (%) JAK2 [5] [%] | IC50 [3] [nM]
CCCN1CC2(CCN(c3ccc(Nc4ncc(C)c(-c5cnn(C(C)C)c5)n4)cc3F)CC2)C1 [CLJ-72, N-(3-fluoro-4-(2,7-diazaspiro [3.5]nonane-2-propyl-7-yl)phenyl)-4-(1-isopropyl-1H-pyrazole-4-yl)-5-methylpyrimidine-2-amine] | 10 to 100 | 10 to 100 | 92 | 92 | 100 to 1000
CCCCN1CC2(CCN(c3ccc(Nc4ncc(C)c(-c5cnn(C(C)C)c5)n4)cc3F)CC2)C1 [CLJ-73, N-(3-fluoro-4-(2,7-diazaspiro [3.5]nonane-2-butyl-7-yl)phenyl)-4-(1-isopropyl-1H-pyrazole-4-yl)-5-methylpyrimidine-2-amine] | 100 to 1000 | 100 to 1000 | 97 | 91 | 100 to 1000
CCCCCCN1CC2(CCN(c3ccc(Nc4ncc(C)c(-c5cnn(C(C)C)c5)n4)cc3F)CC2)C1 [CLJ-74, N-(3-fluoro-4-(2,7-diazaspiro [3.5]nonane-2-hexyl-7-yl)phenyl)-4-(1-isopropyl-1H-pyrazole-4-yl)-5-methylpyrimidine-2-amine] | 10 to 100 | 10 to 100 | 97 | 98 | 10 to 100
Cc1cnc(Nc2ccc(N3CCC4(CC3)CN(C3CCCC3)C4)c(F)c2)nc1-c1cnn(C(C)C)c1 [CLJ-76, N-(3-fluoro-4-(2,7-diazaspiro [3.5]nonane-2-cyclopentyl-7-yl)phenyl)-4-(1-isopropyl-1H-pyrazole-4-yl)-5-methylpyrimidine-2-amine] | 100 to 1000 | 100 to 1000 | 67 | 59 | 100 to 1000

Further lines, with some results ahead:

IC50 [1] [nM] | IC50 [2] [nM] | inhibition at 0.5 µM [4] [%] | Kinase activity @ 500 nM (%) JAK2 [5] [%] | Structure (SMILES) | IC50 [3] [nM]
1 to 10 | 1 to 10 | 99 | 96 | Cc1cnc(Nc2ccc(N3CCC4(CC3)CN(C(C)C)C4)c(F)c2)nc1-c1cnn(C(C)C)c1 [CLJ-75, N-(3-fluoro-4-(2,7-diazaspiro [3.5]nonane-2-isopropyl-7-yl)phenyl)-4-(1-isopropyl-1H-pyrazole-4-yl)-5-methylpyrimidine-2-amine] | 10 to 100
100 to 1000 | 100 to 1000 | 55 | 54 | C=CC(=O)CCN1CC2(CCN(c3ccc(Nc4ncc(C)c(-c5cnn(C(C)C)c5)n4)cc3F)CC2)C1 [CLJ-77, 1-(7-(2-fluoro-4-((4-(1-isopropyl-1H-pyrazole-4-yl)-5-methylpyrimidine-2-yl)-amino)-phenyl)-2,7-diazaspiro [3.5]nonane-2-yl)-4-pentenamide] | 100 to 1000
100 to 1000 | 100 to 1000 | 45 | 44 | Cc1cnc(Nc2ccc(CNC(=O)/C=C/CN(C)C)cc2)nc1-c1cnn(C(C)C)c1 [CLJ-79, (E)-N-(4-((4-(1-isopropyl-1H-pyrazole-4-yl)-5-methylpyrimidine-2-yl)amino)benzyl)-4-dimethylamino-2-butenamide] | 100 to 1000
100 to 1000 | > 1000 | 23 | 34 | Cc1cnc(Nc2ccc(CCNC(=O)/C=C/CN(C)C)cc2)nc1-c1cnn(C(C)C)c1 [CLJ-80, (E)-N-(4-((4-(1-isopropyl-1H-pyrazole-4-yl)-5-methylpyrimidine-2-yl)amino)phenylethyl)-4-dimethylamino-2-butenamide] | > 1000
> 1000 | > 1000 | 22 | 34 | Cc1cnc(Nc2ccc(CNC(=O)/C=C/C(=O)c3ccccc3)cc2)nc1-c1cnn(C(C)C)c1 [CLJ-81, N-(4-((4-(1-isopropyl-1H-pyrazole-4-yl)-5-methylpyrimidine-2-yl)amino)benzyl)-3-benzoyl acrylamide] | > 1000
